Laboratory results published in patent US6806230B1, “Pyrimidine derivatives and herbicides containing them” (Kumiai Chemical Industry Co., Ltd., priority 1999, dated 2004).

Tests used:
Type in all cases: in vivo
barnyard grass (Ec) [1] = test: Test Example 3: herbicidal effects by foliage treatment in upland field; design: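 0-5 growth inhibition grade; 5 = over 90%; 4 = 70-90%; 3 = 50-70%; 2 = 30-50%; 1 = 10-30%; 0 = under 10%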; settings: dose 100 g active ingredient per 10 ares, examined on the 14th day after treatment
Experimental: In a 80 cm^2 plastic pot, upland soil was filled, and seeds of barnyard grass (Ec) and green foxtail (Se) were sown and cultured in a green house for 2 weeks. Then, a wettable powder prepared in accordance with Formulation Example 1 was diluted with water and applied to the entire foliage from above the plants by means of a small size spray at a rate of 100 l per 10 ares so that the dose of the active ingredient would be 100 g per 10 ares. Thereafter, cultivation was carried out in a green house, and on the 14th day after the treatment, the herbicidal effects were examined in accordance with the standards of Table 44.

rice (Or) = test: Test Example 4: selectivity for a crop plant by flooded paddy field treatment; design: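 0-5 phytotoxicity grade; 5 = over 90%; 4 = 70-90%; 3 = 50-70%; 2 = 30-50%; 1 = 10-30%; 0 = under 10%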; settings: rice transplanted at second leaf stage, dose 25 gai/10a, 21st day after treatment, index per Table 44
Summary of the method: (§1)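 Paddled paddy soil in pots sown with barnyard grass and monochoria, with second-leaf-stage rice transplanted, under 3 cm of water. Next day a diluted wettable powder was dripped onto the water at 25 g active ingredient per 10 ares; effects scored on a rating scale 21 days later in a greenhouse.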

barnyard grass (Eo) [2] = test: as above; design: scale not given here; settings: barnyard grass, dose 25 gai/10a, 21st day after treatment, index per Table 44
Summary of the method: as §1

monochoria (Mo) [3] = test: as above; design: scale not given here; settings: monochoria, dose 25 gai/10a, 21st day after treatment, index per Table 44
Summary of the method: as §1

barnyard grass (Ec) [4] = test: Test Example 2: herbicidal effects by upland soil treatment; design: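 0-5 growth inhibition grade; 5 = over 90%; 4 = 70-90%; 3 = 50-70%; 2 = 30-50%; 1 = 10-30%; 0 = under 10%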; settings: dose 100 g active ingredient per 10 ares, examined on the 21st day after treatment
Summary of the method: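 Pre-emergence test: barnyard grass and green foxtail sown in upland soil, then soil surface sprayed with wettable-powder formulation at 100 g active ingredient per 10 ares (100 l per 10 ares). Grown in greenhouse; herbicidal effect scored on a rating scale 21 days after treatment.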

monochoria (Mo) [5] = test: Test Example 1: herbicidal effects by flooded paddy field treatment; design: herbicidal effects, Mo (monochoria):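 0-5 growth inhibition grade; 5 = over 90%; 4 = 70-90%; 3 = 50-70%; 2 = 30-50%; 1 = 10-30%; 0 = under 10%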; settings: for herbicidal effects, Mo (monochoria): dose 100 g active ingredient per 10 ares, examined on the 21st day after treatment, standards of Table 44;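 on Herbicidal effect index, Mo: 0-5 growth inhibition grade; 5 = over 90%; 4 = 70-90%; 3 = 50-70%; 2 = 30-50%; 1 = 10-30%; 0 = under 10%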
Summary of the method: (§2)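 Seeds sown in puddled paddy soil and flooded to 3 cm. Next day, a water-diluted wettable powder was dripped onto the water surface at 100 g active ingredient per 10 ares. Plants were grown in a greenhouse, and herbicidal effect was scored against a rating standard 21 days after treatment.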

barnyard grass (Eo) [6] = test: as above; design: herbicidal effects, Eo (barnyard grass):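 0-5 growth inhibition grade; 5 = over 90%; 4 = 70-90%; 3 = 50-70%; 2 = 30-50%; 1 = 10-30%; 0 = under 10%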; settings: for herbicidal effects, Eo (barnyard grass): dose 100 g active ingredient per 10 ares, examined on the 21st day after treatment, standards of Table 44
Summary of the method: as §2

[7] = dose 100 gai/10a, examined on 21st day after treatment, index 0-5 per Table 44
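Wherever Herbicidal effect index, Eo is given: 0-5 growth inhibition grade; 5 = over 90%; 4 = 70-90%; 3 = 50-70%; 2 = 30-50%; 1 = 10-30%; 0 = under 10%.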

Compound | Ec (herbicidal effects, index) (barnyard grass (Ec) [1]) | Or (herbicidal effect index on crop) (rice (Or)) | Eo (herbicidal effect index) (barnyard grass (Eo) [2]) | Mo (herbicidal effect index) (monochoria (Mo) [3]) | Ec (herbicidal effects, index) (barnyard grass (Ec) [4]) | herbicidal effects, Mo (monochoria) (monochoria (Mo) [5]) | herbicidal effects, Eo (barnyard grass) (barnyard grass (Eo) [6]) | Herbicidal effect index, Mo (monochoria (Mo) [5]; [7]) | Herbicidal effect index, Eo (barnyard grass (Eo) [6]; [7])
Cc1ccc(CC(=O)N(C)C(c2cncnc2C#N)C(C)C)cc1 (racemic) [1-507] | 4 | 1 | 5 | 5 | 5 | 5 | 5 | – | –
CCC(c1cncnc1C(C)C)N(C)C(=O)Cc1ccccc1 (racemic) [1-436] | 4 | 1 | 5 | 5 | 5 | 5 | 5 | – | –
C#CCN(C(=O)Cc1ccc(F)cc1)C(CCC)c1cncnc1C(C)C (racemic) [1-611] | 4 | 1 | 5 | 5 | 5 | 5 | 5 | – | –
CN(C(=O)Cc1ccc(Cl)cc1)C(c1ccsc1)c1cncnc1C(F)(F)F (racemic) [1-442] | 4 | 1 | 5 | 5 | 5 | 5 | 5 | – | –
Cc1ccc(CC(=O)N(C)C(c2cncnc2C(F)(F)F)C(C)C)s1 (racemic) [2-50] | 4 | 1 | 5 | 5 | 5 | 5 | 5 | – | –
CCc1ncncc1C(C(C)C)N(C)S(=O)(=O)c1ccccc1 (racemic) [4-2] | 5 | 1 | 5 | 5 | 5 | 5 | 5 | – | –
C#CCN(C(=O)Cc1ccccc1)C(c1cncnc1CC)C(C)C (racemic) [1-558] | 4 | 1 | 5 | 5 | 5 | 5 | 5 | – | –
C=CCN(C(=O)Cc1ccc(F)cc1)C(c1cncnc1C(F)(F)F)C(C)C (racemic) [1-519] | 4 | 1 | 5 | 5 | 5 | 5 | 5 | – | –
C#CCN(C(=O)Cc1ccc(F)cc1)C(CCC)c1cncnc1CC (racemic) [1-607] | 4 | 1 | 5 | 5 | 4 | 5 | 5 | – | –
C#CCN(C(=O)Cc1ccc(F)cc1)C(c1cncnc1CC)C(C)C (racemic) [1-559] | 4 | 1 | 5 | 5 | 5 | 5 | 5 | – | –
CCOCN(C(=O)Cc1ccc(C)cc1)C(c1cncnc1C(F)(F)F)C(C)C (racemic) [Compound 1-107] | 4 | 0 | 5 | 5 | – | – | – | 5 | 5
COc1ncncc1C(C(C)C)N(C)C(=O)Cc1ccccc1 (racemic) [1-401] | 5 | 1 | 5 | 5 | 5 | 5 | 5 | – | –
CC(=O)c1ncncc1C(C(C)C)N(C)C(=O)Cc1ccc(C)cc1 (racemic) [1-529] | 5 | 1 | 5 | 5 | 5 | 5 | 5 | – | –
CN(C(=O)Cc1ccc(F)cc1)C(c1ccccc1F)c1cncnc1C(F)(F)F (racemic) [1-547] | 4 | 1 | 5 | 5 | 5 | 5 | 5 | – | –
CN(C(=O)Cc1ccccc1)C(c1ccc(Cl)cc1)c1cncnc1C(F)(F)F (racemic) [1-221] | 4 | 1 | 5 | 5 | – | 5 | 5 | – | –
COc1ccc(C(c2cncnc2C(F)(F)F)N(C)C(=O)Cc2ccc(Cl)cc2)cc1 (racemic) [1-486] | 4 | 1 | 5 | 5 | – | 5 | 5 | – | –
COCC(c1cncnc1C(C)C)N(C)C(=O)C(C)c1ccc(Cl)cc1 (mixture of isomers) [1-586] | 5 | – | – | – | 5 | 5 | 5 | – | –
CC(C)C(c1cncnc1C(F)(F)F)N(C)C(=O)N(C)c1ccc(F)cc1 (racemic) [1-426] | 4 | – | – | – | 5 | 5 | 5 | – | –
CON=CC(c1cncnc1C(C)C)N(C)C(=O)Cc1ccc(F)cc1 (racemic) [1-463] | 4 | – | – | – | 4 | 5 | 5 | – | –
CC(C)CC(c1cncnc1C(F)(F)F)N(C)C(=O)Cc1ccccc1 (racemic) [1-330] | 4 | – | – | – | 5 | 5 | 5 | – | –
Cc1ccc(C(C)C(=O)N(C)C(c2cncnc2C(F)(F)F)C(C)C)s1 (mixture of isomers) [2-60] | 4 | – | – | – | 5 | 5 | 5 | – | –
COC(=O)c1ncncc1C(C(C)C)N(C)C(=O)C(C)c1ccc(Cl)cc1 (single isomer, unassigned) [Compound 1-592, 5-(1-{[2-(4-chlorophenyl)-propionyl]methylamino}-2-methylpropyl)-pyrimidine-4-carboxylic acid methyl ester] | 5 | – | – | – | 5 | 5 | 5 | – | –
CCC(C)C(c1cncnc1C(F)(F)F)N(C)C(=O)Cc1cccc(F)c1 (mixture of isomers) [Compound 1-267] | 4 | – | – | – | 5 | 5 | 5 | – | –
CCc1ncncc1C(N(C)C(=O)Cc1ccc(F)cc1)C(C)(C)C (racemic) [1-565] | 5 | – | – | – | 5 | 5 | 5 | – | –
CON=Cc1ncncc1C(C(C)C)N(C)C(=O)Cc1ccc(F)cc1 (racemic) [1-497] | 4 | – | – | – | 5 | 5 | 5 | – | –
CCC(C)C(c1cncnc1C(F)(F)F)N(C)C(=O)Cc1ccsc1 (mixture of isomers) [2-12] | 5 | – | – | – | 5 | 5 | 5 | – | –
